Entries after “also recorded” stand apart in the source; their conditions may differ.
What was measured:
[1] = tested on: NCI-H146 small cell lung cancer cells; experiment: DIMSCAN cytotoxicity assay, NCI-H146; type: cell-based, human; conditions: NCI-H146, fatty acid 5 micromolar
Excerpt: (§1) Cell culture. The pre-T acute lymphoblastic leukemia cell lines MOLT-4 and CCRF-CEM, small cell lung cancer cell line NCI-H146, non-small cell lung cancer cell line NCI-H1792, colon cancer cell lines LoVo and HT-29, and breast cancer cell line MCF-7, were purchased from American Type Culture Collection, Manassas, Va., and grown at 20%/5% and 5%/5%, respectively. COG-LL-317 and COG-LL-332 pre-T acute lymphoblastic leukemia cell lines were obtained from the TTUHSC Cancer Center Cell Repository and grown at 5%/5%. Cell line identities were verified by short tandem repeat analysis and mycoplasma testing was performed. Cell lines were maintained in RPMI-1640 medium supplemented with 10% fetal bovine serum (FBS, Invitrogen) in humidified, 37° C. incubators. For all experiments, ALL cell lines were seeded at 2. cells/mL in RPMI-1640 medium supplemented with 15% fetal bovine serum. Solid tumor cell lines were plated at 5×cells/mL in RPMI-1640 medium supplemented with 10% fetal bovine serum.
(§2) Cytotoxicity Assay. Cytoxicity is determined using the DIMSCAN assay system (R. Proffitt et al., Cytometry 24, 204-213 (1996); T. Frgala et al., Proc. AACR, 36, 303 (1995). The system employs digital imaging microscopy to quantify viable cells, which selectively accumulate fluorescein diacetate to become brightly fluorescent. The system is capable of measuring cytotoxicity over a 4-5 log dynamic range by quenching the residual fluorescence of dead and dying cells with eosin Y and quantifying the total fluorescence of viable cells using digital thresholding. Measured fluorescence is directly proportionate to the number of viable cells.
(§3) In brief, 5,000 to 25,000 cells/well depending on the cell line (5,000 for solid tumor, 25,000 for ALL cell lines) were replicate plated into 60 wells of a 96-well tissue culture plate in 0.1 cc media and allowed to attach or recover overnight. Drug(s) are then added in 0.05 cc media to the final concentrations indicated. […] Total fluorescence of viable cells is then measured by digital imaging microscopy and the signal normalized to control cells. […]

[2] = tested on: NCI-H1792 non-small cell lung cancer cells; experiment: DIMSCAN cytotoxicity assay, NCI-H1792; type: cell-based; conditions: NCI-H1792, fatty acid 5 micromolar
Excerpt: as §1
as §2, with “cells. A comparison of the total fluorescence of a drug-treated cell population to the fluorescence of a similar number of untreated cells yields a survival fraction.” for “cells.”
In brief, 5,000 to 25,000 cells/well depending on the cell line (5,000 for solid tumor, 25,000 for ALL cell lines) were replicate plated into 60 wells of a 96-well tissue culture plate in 0.1 cc media and allowed to attach or recover overnight. […]

[3] = tested on: pre-T acute lymphoblastic leukemia cell lines CCRF-CEM, MOLT-4, COG-LL-317 and COG-LL-332; experiment: DIMSCAN cytotoxicity assay across the four pre-T ALL cell lines; type: cell-based, human; conditions: COG-LL-317, COG-LL-332, CCRF-CEM, 4-HPR 0-9 μM, 48 hours
Excerpt: as §1, with “For all experiments, ALL cell lines were seeded at 2. cells/mL in RPMI-1640 medium supplemented with 15% fetal bovine serum. Solid tumor cell lines were plated at 5×cells/mL in RPMI-1640 medium supplemented with 10% fetal bovine serum.” left out
as §2, with “cells. […]” for “cells.”

reactive oxygen species = experiment: Reactive oxygen species generation; type: cell-based, human; conditions: C22:0-fatty acid with sphinganine plus GT-11
LoVo colon cancer cells = experiment: DIMSCAN cytotoxicity assay, LoVo; type: cell-based, human; conditions: fatty acid 5 micromolar
Excerpt: as §1, §2, §3

CCRF-CEM cells = experiment: DIMSCAN cytotoxicity assay, CCRF-CEM; type: cell-based; conditions: 48 hours
Excerpt: as §1, with “For all experiments, ALL cell lines were seeded at 2. cells/mL in RPMI-1640 medium supplemented with 15% fetal bovine serum. Solid tumor cell lines were plated at 5×cells/mL in RPMI-1640 medium supplemented with 10% fetal bovine serum.” left out
as §2, with “cells. […]” for “cells.”

Compound | effect of fatty acid on fenretinide cytotoxicity [1] | effect of fatty acid on fenretinide cytotoxicity [2] | effect of fatty acid on fenretinide (4-HPR) cytotoxicity [3] | increase of reactive oxygen species (reactive oxygen species) | effect of fatty acid on fenretinide cytotoxicity (LoVo colon cancer cells) | effect of fatty acid addition on sphinganine/GT-11 cytotoxicity (CCRF-CEM cells)
CCCCCCCCCCCCCCCCCCCCCC(=O)O [C22:0-fatty acid] | increased fenretinide cytotoxicity | increased fenretinide cytotoxicity | enhanced; also recorded: significantly increased cytotoxicity | not observed | increased fenretinide cytotoxicity | 
CCCCCCCC/C=C\CCCCCCCCCCCC(=O)O [C22:1-fatty acid] |  |  |  |  |  | did not impart any additional cytotoxicity
